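Protocol summary: plate cells (96-well), add compound at 5 concentrations, incubate 48 h, interpolate endpoints linearly. TGI: concentration producing complete growth inhibition.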
Columns and labels:
Assay in all cases: NCI tumour cell line growth inhibition, 48 h
SK-OV-3 ovarian = tested on: SK-OV-3 ovarian
LOX IMVI melanoma = tested on: LOX IMVI melanoma
SF-268 CNS = tested on: SF-268 CNS
RXF 393 renal = tested on: RXF 393 renal
MALME-3M melanoma = tested on: MALME-3M melanoma
MCF7 breast = tested on: MCF7 breast
HOP-62 NSCLC = tested on: HOP-62 NSCLC
SK-MEL-2 melanoma = tested on: SK-MEL-2 melanoma
COLO 205 colon = tested on: COLO 205 colon
786-0 renal = tested on: 786-0 renal
SR leukemia = tested on: SR leukemia
TK-10 renal = tested on: TK-10 renal
HCT-116 colon = tested on: HCT-116 colon
UACC-257 melanoma = tested on: UACC-257 melanoma
HT29 colon = tested on: HT29 colon
SNB-75 CNS = tested on: SNB-75 CNS
NCI-H460 lung = tested on: NCI-H460 lung
SF-295 CNS = tested on: SF-295 CNS
A498 renal = tested on: A498 renal

SMILES	TGI (SK-OV-3 ovarian)	TGI (LOX IMVI melanoma)	TGI (SF-268 CNS)	TGI (RXF 393 renal)	TGI (MALME-3M melanoma)	TGI (MCF7 breast)	TGI (HOP-62 NSCLC)	TGI (SK-MEL-2 melanoma)	TGI (COLO 205 colon)	TGI (786-0 renal)	TGI (SR leukemia)	TGI (TK-10 renal)	TGI (HCT-116 colon)	TGI (UACC-257 melanoma)	TGI (HT29 colon)	TGI (SNB-75 CNS)	TGI (NCI-H460 lung)	TGI (SF-295 CNS)	TGI (A498 renal)
c1cncc(C2(c3cc4ccccc4[nH]3)COCO2)c1 (stereo unspecified)	> 100 µM	> 100 µM	> 100 µM	> 100 µM	> 100 µM	> 100 µM	> 100 µM	> 100 µM	> 100 µM	> 100 µM	> 100 µM	> 100 µM	> 100 µM	> 100 µM	> 100 µM	> 100 µM	> 100 µM	> 100 µM	–
C=C[C@@]1(C)CC[C@@H]2[C@@]3(C1)O[C@H]3CC1[C@](C)(C(=O)OC)CCC[C@@]12C (stereo partly specified)	69.6 µM	–	38.4 µM	33 µM	35 µM	33.2 µM	40.6 µM	41.4 µM	31.8 µM	36.8 µM	–	51.7 µM	28.1 µM	44.3 µM	27.1 µM	> 100 µM	31.3 µM	29.3 µM	> 100 µM
COC(=O)C1=C(C)C(=O)[C@]23C(CCCC[C@H]12)C(=O)[C@H](C(=O)OC)C3C (stereo partly specified)	> 100 µM	> 100 µM	> 100 µM	–	> 100 µM	> 100 µM	> 100 µM	–	> 100 µM	> 100 µM	> 100 µM	> 100 µM	> 100 µM	> 100 µM	> 100 µM	–	> 100 µM	> 100 µM	–
O=c1ccn2n1Cc1ccccc1C2	> 100 µM	> 100 µM	> 100 µM	> 100 µM	> 100 µM	–	> 100 µM	> 100 µM	> 100 µM	> 100 µM	> 100 µM	> 100 µM	> 100 µM	> 100 µM	> 100 µM	–	> 100 µM	> 100 µM	> 100 µM
CCCCCC(C/C=N/N(C)C)C(O)(C(F)(F)F)C(F)(F)F (stereo unspecified)	> 100 µM	> 100 µM	> 100 µM	76.3 µM	67.1 µM	–	> 100 µM	> 100 µM	30.5 µM	> 100 µM	> 100 µM	> 100 µM	> 100 µM	–	> 100 µM	97.4 µM	> 100 µM	> 100 µM	56 µM
CN1C2=C(CC3=C1CC(C)(C)CC3=O)C(=O)CC(C)(C)C2	> 100 µM	> 100 µM	> 100 µM	–	–	> 100 µM	–	–	–	> 100 µM	> 100 µM	> 100 µM	–	–	> 100 µM	> 100 µM	> 100 µM	–	> 100 µM
O=S1(=O)OCCOS(=O)(=O)C1S(=O)(=O)c1ccc2ccccc2c1	–	> 100 µM	–	–	> 100 µM	> 100 µM	> 100 µM	> 100 µM	> 100 µM	> 100 µM	> 100 µM	> 100 µM	> 100 µM	> 100 µM	> 100 µM	–	> 100 µM	> 100 µM	–
Cn1c(=O)c2c(nc3n(CCCCl)c(=O)ccn23)n(C)c1=O	> 100 µM	> 100 µM	> 100 µM	> 100 µM	–	> 100 µM	> 100 µM	> 100 µM	> 100 µM	> 100 µM	> 100 µM	> 100 µM	> 100 µM	> 100 µM	> 100 µM	> 100 µM	> 100 µM	> 100 µM	> 100 µM
CC1CCC2(O)C3(C)CC4(O)OC2(C1O)C1(O)C3(O)C(OC(=O)c2ccc[nH]2)C(O)(C(C)C)C41C (stereo unspecified)	> 100 µM	> 100 µM	> 31.6 µM	> 100 µM	> 100 µM	> 100 µM	> 100 µM	> 100 µM	> 100 µM	> 100 µM	–	> 100 µM	> 100 µM	> 100 µM	> 100 µM	> 100 µM	> 100 µM	> 100 µM	> 100 µM
CN(CCNC(=O)c1nn(-c2ccccc2)c2c1Cc1ccccc1-2)CCNC(=O)c1nn(-c2ccccc2)c2c1Cc1ccccc1-2	4.31 µM	3.32 µM	4.74 µM	3.07 µM	3.34 µM	3.19 µM	3.6 µM	3.38 µM	3.32 µM	3.08 µM	–	4.3 µM	3.13 µM	3.42 µM	3.73 µM	3.5 µM	3.15 µM	3.34 µM	3.36 µM
C[C@]12CC[C@@H]3c4ccc(O)cc4CC[C@H]3[C@@H]1CC[C@@H]2OP(=O)(O)O	> 100 µM	> 100 µM	> 100 µM	> 100 µM	> 100 µM	> 100 µM	> 100 µM	> 100 µM	> 100 µM	> 100 µM	–	> 100 µM	> 100 µM	> 100 µM	> 100 µM	> 100 µM	> 100 µM	> 100 µM	> 100 µM
Cc1ccc(Cc2n[nH]c(=O)n2Nc2ccccc2)cc1	> 100 µM	> 100 µM	> 100 µM	–	> 100 µM	> 100 µM	> 100 µM	> 100 µM	> 100 µM	> 100 µM	> 100 µM	> 100 µM	> 100 µM	> 100 µM	> 100 µM	–	> 100 µM	> 100 µM	> 100 µM
CC(Cc1ccccc1)Nc1ncnc2c1ncn2C1OC(CO)CC1O (stereo unspecified)	13.7 µM	> 100 µM	> 100 µM	> 100 µM	> 100 µM	> 100 µM	> 100 µM	> 100 µM	> 100 µM	> 100 µM	–	> 100 µM	> 100 µM	> 100 µM	> 100 µM	> 100 µM	> 100 µM	6.21 µM	> 100 µM
CN1CCN(C(=S)N(C(=O)c2ccc(Cl)cc2)c2ccccc2)CC1	–	> 100 µM	> 100 µM	> 100 µM	> 100 µM	> 100 µM	–	> 100 µM	> 100 µM	> 100 µM	> 100 µM	> 100 µM	–	> 100 µM	> 100 µM	> 100 µM	> 100 µM	> 100 µM	–
